Laboratory results taken from patent US20040018158A1, “Topical compositions including sunscreen compositions” (Tend Skin International, Inc., priority 1998, published 2004).

Key:
[1] = saturation concentration of acetylsalicylic acid in the solvent mixture; type: physicochemical; settings: solvent mixture: propylene glycol about 10% by volume, glycerine about 2 percent by volume, balance isopropyl alcohol/water solution with isopropyl alcohol about 70% by volume
[2] = solubility of acetylsalicylic acid in water; type: physicochemical
Text: In preparing the composition, it can be helpful to gently warm while stirring the solvent mixture to assist the acetylsalicylic acid in completely dissolving in the solvent mixture. It has been observed that the typical consumer tends to prefer a product that is homogeneous in appearance and without any visible precipitate. […] Thus, aloe vera, for example, while it is soothing to the skin, tends to quickly hydrolyze acetylsalicylic acid. The hydrolysis of the acetylsalicylic acid would substantially and undesirably shorten the shelf life of the product.

SMILES: CC(=O)Oc1ccccc1C(=O)O [acetylsalicylic acid]
- saturation concentration of the acetylsalicylic acid in this solvent mixture [1]: about 18 % by weight per unit volume
- solubility in water or water based substances [2]: virtually insoluble
